Values of other authors in PubChem BioAssay AID1259409 (Chemical Carcinogenesis Research Information System (CCRIS), 2018).

System: rodent chemically induced tumor inhibition, incidence and multiplicity
Assay: CCRIS tumor inhibitor studies
Details: Dose [Inhibitor]: 0

C#C[C@]1(O)CC[C@H]2[C@@H]3CCc4cc(O)ccc4[C@H]3CC[C@@]21C
tumour outcome (control, treated, inhibition, significance) (Carcinogen: N-METHYL-N-NITROSOUREA, 684-93-5, 0.001% IN DIET BEGINNING POST CARCINOGEN TREATMENT AND CONTINUING FOR 23 WK (STUDY DURATION: 25 WK), Route [Inhibitor]: ORAL, Species: RAT, Strain/Sex: F344/MALE, Target Tissue: Type of Lesion: FORESTOMACH: PAPILLOMA, Dose [Carcinogen]: 50 MG/KG 4/2 WK, Promoter: NONE USED): 8/17 (47%), 4/20 (20%), 57%, not calculated | tumour outcome (control, treated, inhibition, significance) (Carcinogen: N-METHYL-N-NITROSOUREA, 684-93-5, 0.001% IN DIET BEGINNING POST CARCINOGEN TREATMENT AND CONTINUING FOR 23 WK (STUDY DURATION: 25 WK), Route [Inhibitor]: ORAL, Species: RAT, Strain/Sex: F344/MALE, Target Tissue: Type of Lesion: FORESTOMACH: SQUAMOUS CELL CARCINOMA, Dose [Carcinogen]: 50 MG/KG 4/2 WK, Promoter: NONE USED): 2/17 (12%), 2/20 (10%), 17%, not calculated | tumour outcome (control, treated, inhibition, significance) (Carcinogen: N-METHYL-N-NITROSOUREA, 684-93-5, 0.001% IN DIET BEGINNING POST CARCINOGEN TREATMENT AND CONTINUING FOR 23 WK (STUDY DURATION: 25 WK), Route [Inhibitor]: ORAL, Species: RAT, Strain/Sex: F344/MALE, Target Tissue: Type of Lesion: HEMATOPOIETIC SYSTEM: LYMPHOMA OR LEUKEMIA, Dose [Carcinogen]: 50 MG/KG 4/2 WK, Promoter: NONE USED): 3/17 (18%), 0/20 (0%), 100%, not calculated | tumour outcome (control, treated, inhibition, significance) (Carcinogen: N-METHYL-N-NITROSOUREA, 684-93-5, 0.001% IN DIET BEGINNING POST CARCINOGEN TREATMENT AND CONTINUING FOR 23 WK (STUDY DURATION: 25 WK), Route [Inhibitor]: ORAL, Species: RAT, Strain/Sex: F344/MALE, Target Tissue: Type of Lesion: SMALL INTESTINE: ADENOCARCINOMA, Dose [Carcinogen]: 50 MG/KG 4/2 WK, Promoter: NONE USED): 9/17 (53%), 0/20 (0%), 100%, not calculated | tumour outcome (control, treated, inhibition, significance) (Carcinogen: N-METHYL-N-NITROSOUREA, 684-93-5, 0.001% IN DIET BEGINNING POST CARCINOGEN TREATMENT AND CONTINUING FOR 23 WK (STUDY DURATION: 25 WK), Route [Inhibitor]: ORAL, Species: RAT, Strain/Sex: F344/MALE, Target Tissue: Type of Lesion: SMALL INTESTINE: ADENOMA, Dose [Carcinogen]: 50 MG/KG 4/2 WK, Promoter: NONE USED): 10/17 (59%), 7/20 (35%), 41%, not calculated | tumour outcome (control, treated, inhibition, significance) (Carcinogen: N-METHYL-N-NITROSOUREA, 684-93-5, 0.001% IN DIET BEGINNING POST CARCINOGEN TREATMENT AND CONTINUING FOR 23 WK (STUDY DURATION: 25 WK), Route [Inhibitor]: ORAL, Species: RAT, Strain/Sex: F344/MALE, Target Tissue: Type of Lesion: THYROID: ADENOCARCINOMA, Dose [Carcinogen]: 50 MG/KG 4/2 WK, Promoter: NONE USED): 1/17 (6%), 0/20 (0%), 100%, not calculated | tumour outcome (control, treated, inhibition, significance) (Carcinogen: N-METHYL-N-NITROSOUREA, 684-93-5, 0.001% IN DIET BEGINNING POST CARCINOGEN TREATMENT AND CONTINUING FOR 23 WK (STUDY DURATION: 25 WK), Route [Inhibitor]: ORAL, Species: RAT, Strain/Sex: F344/MALE, Target Tissue: Type of Lesion: THYROID: ADENOMA, Dose [Carcinogen]: 50 MG/KG 4/2 WK, Promoter: NONE USED): 3/17 (18%), 0/20 (0%), 100%, not calculated | tumour outcome (control, treated, inhibition, significance) (Carcinogen: N-METHYL-N-NITROSOUREA, 684-93-5, 0.001% IN DIET BEGINNING POST CARCINOGEN TREATMENT AND CONTINUING FOR 23 WK (STUDY DURATION: 25 WK), Route [Inhibitor]: ORAL, Species: RAT, Strain/Sex: F344/MALE, Target Tissue: Type of Lesion: TONGUE: PAPILLOMA, Dose [Carcinogen]: 50 MG/KG 4/2 WK, Promoter: NONE USED): 2/17 (12%), 2/20 (10%), 16%, not calculated | tumour outcome (control, treated, inhibition, significance) (Carcinogen: N-METHYL-N-NITROSOUREA, 684-93-5, 0.001% IN DIET BEGINNING POST CARCINOGEN TREATMENT AND CONTINUING FOR 23 WK (STUDY DURATION: 25 WK), Route [Inhibitor]: ORAL, Species: RAT, Strain/Sex: F344/MALE, Target Tissue: Type of Lesion: TONGUE: SQUAMOUS CELL CARCINOMA, Dose [Carcinogen]: 50 MG/KG 4/2 WK, Promoter: NONE USED): 2/17 (12%), 0/20 (0%), 100%, not calculated | tumour outcome (control, treated, inhibition, significance) (Carcinogen: N-METHYL-N-NITROSOUREA, 684-93-5, 0.001% IN DIET BEGINNING POST CARCINOGEN TREATMENT AND CONTINUING FOR 23 WK (STUDY DURATION: 25 WK), Route [Inhibitor]: ORAL, Species: RAT, Strain/Sex: F344/MALE, Target Tissue: Type of Lesion: URINARY BLADDER: PAPILLOMA, Dose [Carcinogen]: 50 MG/KG 4/2 WK, Promoter: NONE USED): 2/17 (18%), 0/20 (0%), 100%, not calculated

S=C=NCC(c1ccccc1)c1ccccc1
tumour outcome (control, treated, inhibition, significance) (Carcinogen: 4-(METHYLNITROSAMINO)-1-(3-PYRIDYL)-1-BUTANONE, 64091-91-4, 1 UMOL ONCE 2 HR PRIOR TO CARCINOGEN DOSE (STUDY DURATION: 16 WK), Route [Inhibitor]: GAVAGE, Species: MOUSE, Strain/Sex: STRAIN-A/FEMALE, Target Tissue: Type of Lesion: LUNG: ADENOMA, Dose [Carcinogen]: 10 UMOL IN 0.1 ML SALINE ONCE, Promoter: NONE USED): 100%, 60%, 40%, p<0.05 | tumour outcome (control, treated, inhibition, significance) (Carcinogen: 4-(METHYLNITROSAMINO)-1-(3-PYRIDYL)-1-BUTANONE, 64091-91-4, 5 UMOL ONCE 2 HR PRIOR TO CARCINOGEN DOSE (STUDY DURATION: 16 WK), Route [Inhibitor]: GAVAGE, Species: MOUSE, Strain/Sex: STRAIN-A/FEMALE, Target Tissue: Type of Lesion: LUNG: ADENOMA, Dose [Carcinogen]: 10 UMOL IN 0.1 ML SALINE ONCE, Promoter: NONE USED): 100%, 45%, 55%, p<0.05

CCCCC/C=C\C/C=C\CCCCCCCC(=O)O
tumour outcome (control, treated, inhibition, significance) (Carcinogen: BENZO[A]PYRENE, 50-32-8, 0.1 ML IN 0.1 ML OLIVE OIL 4 AND 2 D PRIOR TO CARCINOGEN DOSE (CYCLE REPEATED 4 X) (STUDY DURATION: 23 WK), Route [Inhibitor]: GAVAGE, Species: MOUSE, Strain/Sex: ICR/FEMALE, Target Tissue: Type of Lesion: STOMACH: PAPILLOMA, Dose [Carcinogen]: 2 MG IN 0.2 ML OLIVE OIL 1/WK FOR 4 WK): 100%, 90%, 10%, not calculated
